Measurements from ChEMBL document CHEMBL1201862, “PubChem BioAssay data set” (2004).
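Grown in 96-well plates, cells were treated for 48 hours with each compound at five concentrations. Insufficient inhibition: endpoint recorded as highest concentration tested. GI50 marks 50% less growth.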 Activity calls are given as the source filed them. Rule as the data show it: active = GI50 up to about 1.1 µM and inactive = higher.

Key:
Test in all cases: inhibition of tumour cell growth, NCI panel, 48 h
[1] = test system: 786-0
[2] = test system: CAKI-1
[3] = test system: EKVX
[4] = test system: HCC 2998
[5] = test system: HL-60
[6] = test system: HOP-92
[7] = test system: K562
[8] = test system: MOLT-4
[9] = test system: Malme-3M
[10] = test system: RXF 393
[11] = test system: SF-539
[12] = test system: SK-MEL-5
[13] = test system: SR
[14] = test system: SW-620
[15] = test system: U-251
[16] = test system: UACC-257
[17] = test system: UACC-62
[18] = test system: UO-31
[19] = test system: DU-145
[20] = test system: PC-3

Row | SMILES | GI50 [1] | GI50 [2] | GI50 [3] | GI50 [4] | GI50 [5] | GI50 [6] | GI50 [7] | GI50 [8] | GI50 [9] | GI50 [10] | GI50 [11] | GI50 [12] | GI50 [13] | GI50 [14] | GI50 [15] | GI50 [16] | GI50 [17] | GI50 [18] | GI50 [19] | GI50 [20]
1 | CC1=CC2=C(C)C3(CC3)[C@@](C)(O)C(=O)C2=C1 | 0.217 µM (active) | 0.269 µM (active) | 0.535 µM (active) | 0.178 µM (active) | 0.135 µM (active) | 0.307 µM (active) | > 1 µM (active) | > 1 µM (active) | 0.0933 µM (active) | 0.149 µM (active) | 0.219 µM (active) | 0.122 µM (active) | > 1 µM (active) | > 1 µM (active) | 0.209 µM (active) | 0.237 µM (active) | 0.21 µM (active) | 0.19 µM (active) |  | 
2 | COC1=C(N)C(=O)c2nc(C)ccc2C1=O | 1.98 µM (inactive) | 8.3 µM (inactive) | 2.77 µM (inactive) | 4.57 µM (inactive) | 2.94 µM (inactive) | 9.95 µM (inactive) |  | 5.85 µM (inactive) | 1.77 µM (inactive) | 1.67 µM (inactive) | 1.91 µM (inactive) | 1.7 µM (inactive) | 2.94 µM (inactive) | 1.87 µM (inactive) | 2.2 µM (inactive) | 1.47 µM (inactive) | 1.75 µM (inactive) | 2.17 µM (inactive) |  | 
3 | Cc1c(-c2ccccc2)[nH]c2cc(Cl)ccc2c1=O |  | 29.2 µM (inactive) | > 100 µM (inactive) | > 100 µM (inactive) | 23.1 µM (inactive) |  | 16.4 µM (inactive) | > 100 µM (inactive) | 65 µM (inactive) | 18.6 µM (inactive) | 39.8 µM (inactive) | 35.1 µM (inactive) | 18.7 µM (inactive) |  | 25.8 µM (inactive) | 49.2 µM (inactive) | 54.6 µM (inactive) | 0.0135 µM (active) | > 100 µM (inactive) | 
4 | O=C1OC2C(O)COC2(O)C1(O)Cc1c[nH]c2ccccc12.O=C1OC2C(O)COC2(OCc2c[nH]c3ccccc23)C1O (centres undefined) | > 100 µM (inactive) | > 100 µM (inactive) | > 100 µM (inactive) |  | > 100 µM (inactive) | > 100 µM (inactive) | > 100 µM (inactive) | > 100 µM (inactive) | > 100 µM (inactive) | > 100 µM (inactive) | > 100 µM (inactive) | > 100 µM (inactive) | > 100 µM (inactive) | > 100 µM (inactive) | > 100 µM (inactive) | > 100 µM (inactive) | > 100 µM (inactive) | > 100 µM (inactive) |  | 
5 | CCc1cccc(C)c1NC(=O)CC1C(=O)Nc2ccccc2S1(=O)=O (centres undefined) | 15.7 µM (inactive) | 14.2 µM (inactive) | 15.5 µM (inactive) | 16.8 µM (inactive) | 12.1 µM (inactive) | 12 µM (inactive) | 2.92 µM (inactive) | 14.1 µM (inactive) | 14.4 µM (inactive) | 15.1 µM (inactive) | 11 µM (inactive) | 13.7 µM (inactive) | 5.65 µM (inactive) | 15.2 µM (inactive) | 16.9 µM (inactive) | 18.9 µM (inactive) | 15.8 µM (inactive) | 13.5 µM (inactive) |  | 
6 | CC(=O)OC1(C#N)CC2OC1C1C2N=NN1C(=O)OC(C)(C)C (centres undefined) |  | > 100 µM (inactive) | 68.2 µM (inactive) | 44.5 µM (inactive) |  | 27.5 µM (inactive) | 33.5 µM (inactive) | 50.1 µM (inactive) | 21.9 µM (inactive) | 40.6 µM (inactive) | 23.2 µM (inactive) | 35.3 µM (inactive) | 32.8 µM (inactive) | 30.7 µM (inactive) |  | 35.4 µM (inactive) | 19.5 µM (inactive) | 73.3 µM (inactive) |  | 
7 | Cc1nc2ccccc2n1Cc1nnc2n1N=C(c1ccccc1)CS2 | 44 µM (inactive) | 37.2 µM (inactive) | 34.3 µM (inactive) | 21.4 µM (inactive) | 29.2 µM (inactive) |  |  | 27.2 µM (inactive) | 49.9 µM (inactive) |  | 12.5 µM (inactive) | 29.2 µM (inactive) |  | 34.4 µM (inactive) | 25.1 µM (inactive) | 22.5 µM (inactive) | 23.9 µM (inactive) | 38.2 µM (inactive) | 37.5 µM (inactive) | 16.7 µM (inactive)
8 | Cc1nc2c(s/c(=N\N)n2-c2ccccc2)c(=O)[nH]1 | > 100 µM (inactive) | > 100 µM (inactive) | > 100 µM (inactive) | > 100 µM (inactive) | > 100 µM (inactive) | > 100 µM (inactive) | > 100 µM (inactive) | > 100 µM (inactive) | > 100 µM (inactive) | > 100 µM (inactive) | > 100 µM (inactive) | > 100 µM (inactive) | > 100 µM (inactive) | > 100 µM (inactive) | > 100 µM (inactive) | > 100 µM (inactive) | > 100 µM (inactive) | > 100 µM (inactive) |  | 
9 | O=C(NO)C(=O)Nc1ccc(Cl)cc1[N+](=O)[O-] | > 100 µM (inactive) | 66.5 µM (inactive) | 33.9 µM (inactive) | > 100 µM (inactive) | > 100 µM (inactive) | 83.9 µM (inactive) | > 100 µM (inactive) | > 100 µM (inactive) | > 100 µM (inactive) | > 100 µM (inactive) | > 100 µM (inactive) | > 100 µM (inactive) | > 100 µM (inactive) | > 100 µM (inactive) | > 100 µM (inactive) | > 100 µM (inactive) | > 100 µM (inactive) | > 100 µM (inactive) |  | 
10 | COc1ccc(C2C=C(c3ccc(C)cc3)N(c3ccc(OC)cc3[N+](=O)[O-])C3C(=O)OC(=O)C23)c(OC)c1 (centres undefined) | 30.8 µM (inactive) | 37.3 µM (inactive) | 28.2 µM (inactive) | 29.9 µM (inactive) | 31.8 µM (inactive) |  | 37.8 µM (inactive) | 32.6 µM (inactive) | 11.1 µM (inactive) |  | 24.4 µM (inactive) | 64.6 µM (inactive) | 20.1 µM (inactive) | 28.6 µM (inactive) | 45.9 µM (inactive) | 77.6 µM (inactive) | 49.4 µM (inactive) |  |  | 42.4 µM (inactive)
11 | O=C(O)COc1ccc(C(=O)/C(SS/C(C(=O)c2ccc(OCC(=O)O)c(Cl)c2Cl)=C2\C=C(c3ccc(Br)cc3)SS2)=C2/C=C(c3ccc(Br)cc3)SS2)c(Cl)c1Cl | 3.87 µM (inactive) | 13.6 µM (inactive) | 28 µM (inactive) | 10.2 µM (inactive) | 1.55 µM (inactive) | 3.5 µM (inactive) | 2.92 µM (inactive) | 3.44 µM (inactive) | 11.5 µM (inactive) |  | 4.3 µM (inactive) | 11.9 µM (inactive) |  | 6.73 µM (inactive) | 3.47 µM (inactive) | 25.3 µM (inactive) | 4.55 µM (inactive) | 4.32 µM (inactive) | 16.8 µM (inactive) | 
12 | Cn1c(=O)n(C2(C)C[Se]C2)c2ccccc21 | > 100 µM (inactive) | > 100 µM (inactive) | > 100 µM (inactive) | 65.3 µM (inactive) | > 100 µM (inactive) | > 100 µM (inactive) | > 100 µM (inactive) | > 100 µM (inactive) |  | > 100 µM (inactive) | > 100 µM (inactive) | > 100 µM (inactive) | > 100 µM (inactive) | > 100 µM (inactive) | > 100 µM (inactive) | > 100 µM (inactive) | > 100 µM (inactive) | > 100 µM (inactive) |  | 
13 | Cc1cc2oc(-c3ccccc3)c(C)c(=O)c2c2c1OC(C)(C)S2 | > 100 µM (inactive) |  | > 100 µM (inactive) | > 100 µM (inactive) | 8.13 µM (inactive) | 27.2 µM (inactive) | 30.9 µM (inactive) | 60.3 µM (inactive) | > 100 µM (inactive) | 70.3 µM (inactive) | > 100 µM (inactive) | 68.7 µM (inactive) | 29.6 µM (inactive) | > 100 µM (inactive) | > 100 µM (inactive) | 63.7 µM (inactive) | > 100 µM (inactive) | > 100 µM (inactive) |  | 
14 | CCOC(=O)C(C(=O)OCC)P(=S)(S)c1ccccc1 (centres undefined) | > 100 µM (inactive) | > 100 µM (inactive) | > 100 µM (inactive) |  | > 100 µM (inactive) | > 100 µM (inactive) | > 100 µM (inactive) | > 100 µM (inactive) | > 100 µM (inactive) | > 100 µM (inactive) | > 100 µM (inactive) | > 100 µM (inactive) | > 100 µM (inactive) | > 100 µM (inactive) | > 100 µM (inactive) | > 100 µM (inactive) | > 100 µM (inactive) | > 100 µM (inactive) |  | 
15 | OC1CCC[C@@H]1Sc1ccccc1 (some centres undefined) | > 100 µM (inactive) | > 100 µM (inactive) | > 100 µM (inactive) | > 100 µM (inactive) | > 100 µM (inactive) | > 100 µM (inactive) | > 100 µM (inactive) | > 100 µM (inactive) |  | > 100 µM (inactive) | > 100 µM (inactive) | > 100 µM (inactive) | > 100 µM (inactive) | > 100 µM (inactive) | > 100 µM (inactive) | > 100 µM (inactive) | 57.8 µM (inactive) | > 100 µM (inactive) |  | 
